# Reference: patent publication US5837868A, “Process for preparation of chiral 3-amino-pyrrolidine and analogous bicyclic compounds” (Abbott Laboratories, priority 1997, dated 1998)
# Where a name gives a salt, the structure may show the parent alone.
# Experiments:
# M. luteus ATCC 9341 = test: In vitro antibacterial activity, agar dilution MIC; type: cell-based; settings: Micrococcus luteus, ATCC9341
# Experimental: (§1) Each plate was inoculated with 1:100 (or 1:10 for slow-growing strains, primarily Micrococcus and Streptococcus) dilutions of up to 32 different microorganisms, using a Steers replicator block calibrated to deliver approximately 10^4 colony forming units (CFUs). The inoculated plates were incubated at from about 35° C. to about 37° C. for approximately 20-24 hours. In addition, a control plate using BHI agar containing no test compound was prepared and incubated at the beginning and at the end of each test. The quinolone antibacterial ciprofloxacin was used as a control ("Cntl").
# (§2) The MIC was defined as the lowest concentration of test compound yielding no growth (a slight haze or sparsely isolated colonies at the inoculum spot) as compared to the growth control containing no test compound.
# Staph. aureus NCTC10649M = test: In vitro antibacterial activity, agar dilution MIC; type: cell-based; settings: Staphylococcus aureus; Staph. aureus NCTC10649M; BHI agar dilution, 20-24 hours; read-out: MIC
# Experimental: as §1, §2
# [1] = test system: Entero. faecium ATCC 8043; test: In vitro antibacterial activity, agar dilution MIC; type: cell-based; settings: Enterococcus faecium, ATCC8043
# Experimental: as §1, §2
# [2] = test system: Staph. aureus 1775 Cipro. R.; test: In vitro antibacterial activity, agar dilution MIC; type: cell-based; settings: Staphylococcus aureus; Staph. aureus 1775 Cipro. R.; BHI agar dilution, 20-24 hours; read-out: MIC
# Experimental: as §1, §2
# E. coli DC-2 = test: In vitro antibacterial activity, agar dilution MIC; type: cell-based; settings: Escherichia coli, DC2; E. coli DC-2; BHI agar dilution, 20-24 hours; read-out: MIC
# Experimental: as §1, §2
# [3] = test system: Acinetob. calcoaceticus CMX 669; test: In vitro antibacterial activity, agar dilution MIC; type: cell-based; settings: Acinetob. calcoaceticus CMX 669; BHI agar dilution, 20-24 hours; read-out: MIC
# Experimental: as §1, §2
# Strep. pyogenes EES61 = test: In vitro antibacterial activity, agar dilution MIC; type: cell-based; settings: Streptococcus pyogenes; Strep. pyogenes EES61; BHI agar dilution, 20-24 hours; read-out: MIC
# Experimental: as §1, §2
# Staph. epidermidis 3519 = test: In vitro antibacterial activity, agar dilution MIC; type: cell-based; settings: Staphylococcus epidermidis; Staph. epidermidis 3519; BHI agar dilution, 20-24 hours; read-out: MIC
# Experimental: as §1, §2
# Staph. aureus A5177 = test: In vitro antibacterial activity, agar dilution MIC; type: cell-based; settings: Staphylococcus aureus; Staph. aureus A5177; BHI agar dilution, 20-24 hours; read-out: MIC
# Experimental: as §1, §2
# Staph. aureus CMX 553 = test: In vitro antibacterial activity, agar dilution MIC; type: cell-based; settings: Staphylococcus aureus, CMX553; Staph. aureus CMX 553; BHI agar dilution, 20-24 hours; read-out: MIC
# Experimental: as §1, §2
# Strep. bovis A5169 = test: In vitro antibacterial activity, agar dilution MIC; type: cell-based; settings: Streptococcus equinus; Strep. bovis A5169; BHI agar dilution, 20-24 hours; read-out: MIC
# Experimental: as §1, §2
# Candida albicans CCH 442 = test: In vitro antibacterial activity, agar dilution MIC; settings: Candida albicans, CCH442
# Experimental: as §1, §2
# Pseudomonas cepacia 296I = test: In vitro antibacterial activity, agar dilution MIC; type: cell-based; settings: Burkholderia cepacia; Pseudomonas cepacia 296I; BHI agar dilution, 20-24 hours; read-out: MIC
# Experimental: as §1, §2
# [4] = test system: Strep. pyogenes 2548 INDUC; test: microbe, parasite or virus in culture; type: cell-based; settings: Streptococcus pyogenes, 2548INDUC
# Experimental: as §1, §2
# E. coli KNK 437 = test: In vitro antibacterial activity, agar dilution MIC; type: cell-based; settings: Escherichia coli, KNK437; E. coli KNK 437; BHI agar dilution, 20-24 hours; read-out: MIC
# Experimental: as §1, §2
# Staph. aureus 642A = test: In vitro antibacterial activity, agar dilution MIC; type: cell-based; settings: Staphylococcus aureus; Staph. aureus 642A; BHI agar dilution, 20-24 hours; read-out: MIC
# Experimental: as §1, §2
# [5] = test system: Strep. agalactiae CMX 508; test: In vitro antibacterial activity, agar dilution MIC; type: cell-based; settings: Streptococcus agalactiae, CMX508; Strep. agalactiae CMX 508; BHI agar dilution, 20-24 hours; read-out: MIC
# Experimental: as §1, §2
# Staph. aureus 5278 = test: In vitro antibacterial activity, agar dilution MIC; type: cell-based; settings: Staphylococcus aureus; Staph. aureus 5278; BHI agar dilution, 20-24 hours; read-out: MIC
# Experimental: as §1, §2
# E. coli SS = test: In vitro antibacterial activity, agar dilution MIC; type: cell-based; settings: Escherichia coli; E. coli SS; BHI agar dilution, 20-24 hours; read-out: MIC
# Experimental: as §1, §2
# Escherichia coli Juhl = test: In vitro antibacterial activity, agar dilution MIC; type: cell-based; settings: Escherichia coli Juhl; BHI agar dilution, 20-24 hours; read-out: MIC
# Experimental: as §1, §2
# M. luteus ATCC 4698 = test: In vitro antibacterial activity, agar dilution MIC; type: cell-based; settings: Micrococcus luteus, ATCC4698
# Experimental: as §1, §2
# P. aeruginosa BMH 10 = test: In vitro antibacterial activity, agar dilution MIC; type: cell-based; settings: Pseudomonas aeruginosa, BMH10; P. aeruginosa BMH 10; BHI agar dilution, 20-24 hours; read-out: MIC
# Experimental: as §1, §2
# P. aeruginosa A5007 = test: In vitro antibacterial activity, agar dilution MIC; type: cell-based; settings: Pseudomonas aeruginosa; P. aeruginosa A5007; BHI agar dilution, 20-24 hours; read-out: MIC
# Experimental: as §1, §2
# P. aeruginosa 2862 = test: In vitro antibacterial activity, agar dilution MIC; type: cell-based; settings: Pseudomonas aeruginosa, 2862
# Experimental: as §1, §2
# P. aeruginosa 5263 = test: microbe, parasite or virus in culture; settings: Pseudomonas aeruginosa
# Experimental: as §1, §2
# P. aeruginosa K799/61 = test: In vitro antibacterial activity, agar dilution MIC; type: cell-based; settings: Pseudomonas aeruginosa, K799/61
# Experimental: as §1, §2
# Staph. aureus ATCC 6538P = test: In vitro antibacterial activity, agar dilution MIC; type: cell-based; settings: Staphylococcus aureus, ATCC6538P; Staph. aureus ATCC 6538P; BHI agar dilution, 20-24 hours; read-out: MIC
# Experimental: as §1, §2
# Myco. smegmatis ATCC 114 = test: In vitro antibacterial activity, agar dilution MIC; type: cell-based; settings: Mycolicibacterium smegmatis, ATCC114; Myco. smegmatis ATCC 114; BHI agar dilution, 20-24 hours; read-out: MIC
# Experimental: as §1, §2
# [6] = test system: Strep. pyogenes 930 CONST; test: In vitro antibacterial activity, agar dilution MIC; type: cell-based; settings: Streptococcus pyogenes, 930CONST
# Experimental: as §1, §2
# E. coli H560 = test: In vitro antibacterial activity, agar dilution MIC; type: cell-based; settings: Escherichia coli; E. coli H560; BHI agar dilution, 20-24 hours; read-out: MIC
# Experimental: as §1, §2
# [7] = test system: Nocardia asteroides ATCC 9970; test: In vitro antibacterial activity, agar dilution MIC; type: cell-based; settings: ATCC9970; Nocardia asteroides ATCC 9970; BHI agar dilution, 20-24 hours; read-out: MIC
# Experimental: as §1, §2
# [8] = test system: Providencia stuartii CMX 640; test: In vitro antibacterial activity, agar dilution MIC; type: cell-based; settings: CMX640; Providencia stuartii CMX 640; BHI agar dilution, 20-24 hours; read-out: MIC
# Experimental: as §1, §2
# P. aeruginosa K799/WT = test: In vitro antibacterial activity, agar dilution MIC; type: cell-based; settings: Pseudomonas aeruginosa; P. aeruginosa K799/WT; BHI agar dilution, 20-24 hours; read-out: MIC
# Experimental: as §1, §2
# [9] = test system: Enter. aerogenes ATCC 13048; test: In vitro antibacterial activity, agar dilution MIC; type: cell-based; settings: Klebsiella aerogenes, ATCC13048; Enter. aerogenes ATCC 13048; BHI agar dilution, 20-24 hours; read-out: MIC
# Experimental: as §1, §2
# [10] = test system: Klebs. pneumoniae ATCC 8045; test: In vitro antibacterial activity, agar dilution MIC; type: cell-based; settings: Klebsiella pneumoniae, ATCC8045; Klebs. pneumoniae ATCC 8045; BHI agar dilution, 20-24 hours; read-out: MIC
# Experimental: as §1, §2
compound,measurement,setting,value
"CC[C@H]1CN(c2c(F)cn3c(=O)c(C(=O)O)cc(C4CC4)c3c2C)C[C@H]1N (relative stereo) [Ex. 3, 8-(cis-3-amino-4-ethylpyrrolidin-1-yl)-1-cyclopropyl-7-fluoro-4H-9-methyl-4-oxo-quinolizine-3-carboxylic acid hydrochloride diastereomer A]",MIC,M. luteus ATCC 9341,0.1 µg/mL
same,MIC,Staph. aureus NCTC10649M,0.01 µg/mL
same,MIC,[1],0.1 µg/mL
same,MIC,[2],0.78 µg/mL
same,MIC,E. coli DC-2,0.2 µg/mL
same,MIC,[3],0.02 µg/mL
same,MIC,Strep. pyogenes EES61,0.1 µg/mL
same,MIC,Staph. epidermidis 3519,0.02 µg/mL
same,MIC,Staph. aureus A5177,0.02 µg/mL
same,MIC,Staph. aureus CMX 553,0.02 µg/mL
same,MIC,Strep. bovis A5169,0.1 µg/mL
same,MIC,Candida albicans CCH 442,> 100 µg/mL
same,MIC,Pseudomonas cepacia 296I,0.78 µg/mL
same,MIC,[4],0.05 µg/mL
same,MIC,E. coli KNK 437,0.1 µg/mL
same,MIC,Staph. aureus 642A,0.02 µg/mL
same,MIC,[5],0.1 µg/mL
same,MIC,Staph. aureus 5278,0.02 µg/mL
same,MIC,E. coli SS,0.002 µg/mL
same,MIC,Escherichia coli Juhl,0.02 µg/mL
same,MIC,M. luteus ATCC 4698,0.1 µg/mL
same,MIC,P. aeruginosa BMH 10,0.39 µg/mL
same,MIC,P. aeruginosa A5007,0.39 µg/mL
same,MIC,P. aeruginosa 2862,3.1 µg/mL
same,MIC,P. aeruginosa 5263,3.1 µg/mL
same,MIC,P. aeruginosa K799/61,0.02 µg/mL
same,MIC,Staph. aureus ATCC 6538P,0.01 µg/mL
same,MIC,Myco. smegmatis ATCC 114,0.02 µg/mL
same,MIC,[6],0.05 µg/mL
same,MIC,E. coli H560,0.01 µg/mL
same,MIC,[7],0.39 µg/mL
same,MIC,[8],0.78 µg/mL
same,MIC,P. aeruginosa K799/WT,0.39 µg/mL
same,MIC,[9],0.05 µg/mL
same,MIC,[10],0.02 µg/mL
